Experimental data: US11684591B2, “Use of a GABAA receptor allosteric enhancer in medicine” (XI'AN LIBANG ZHAOXIN BIOTECHNOLOGY CO., LTD., priority 2018, dated 2023)

Columns and labels:
[1] = Distribution in brain tissues after intravenous administration in rats (LC-MS/MS); type: in vivo, SD rats
Procedure: 1. Comparative Test of the Distribution in Brain Tissues of Compound 1 and Dipropofol (3,3′, 5,5′-Tetraisopropyl-4,4′-Biphenol) after Intravenous Administration in Rats
72 SD rats, weighing 200 to 220 g, were randomly divided into 12 groups (6 per time group), and fasted for 12 h before administration. A dose of 45 mg/kg was intravenously administered with Compound 1 or the dipropofol respectively, and the rates were sacrificed at 5 min, 15 min, 30 min, 1 h, 2 h and 4 h after the administration. The brain tissues were removed immediately, rinsed with ice-cold distilled water, blotted dry, and frozen at −40° C. for storage. The concentration of Compound 1 or the dipropofol in the brain tissues at different points in time after administration in rats was measured by LC-MS/MS, as shown in Table 1 and FIG. 1.

[2] = tested on: GABAA, Chloride Channel, TBPS; experiment: [35S]TBPS radioligand receptor competitive binding test; set-up: species or system rats; settings: [35S]TBPS competitive binding
Procedure: 2. In Vitro GABAA Receptor Target Affinity Test
A radioligand ([^35S] TBPS) receptor competitive binding test was used to evaluate the affinity of the test compound (10 uM) with GABAA receptors.

[3] = tested on: PTZ-induced tonic-clonic seizures; experiment: Antiepileptic test in rats with PTZ-induced seizures; type: in vivo, male SD rats; set-up: key to Seizure Intensity (total score of 7 animals): summed score: grade V = 5, IV = 4, III = 3, below III = 0; settings: 45 mg/kg i.v.; for Number of episodes (animals), grade III / Number of episodes (animals), grade IV / Number of episodes (animals), grade V / Seizure Intensity (total score of 7 animals): n = 7
Procedure: 3. Antiepileptic Test of Compounds 1 and Dipropofol (3,3′, 5,5′-Tetraisopropyl-4,4′-Biphenol) in Rats with PTZ-Induced Seizures
In this test, male SD rats (Xi'an Jiaotong University), weighing 200 to 250 g, were used and intravenously administrated with 45 mg/kg of a Dipropofol injection, a Compound 1 injection, and blank solvent of the same volume. 1, 3, 5, 10, 15, 30, 60, 90 mins, and 120 mins after the intravenous administration, 70 mg/kg of PTZ was intraperitoneally injected in the rats to induce tonic-clonic seizures. 7 rats were used for each time point in each drug group. Rat seizure intensity was recorded in accordance with the Racine grading criteria in grade III to V seizure status. Scores were recorded according to the seizure intensity: 5 points for grade V, 4 points for grade IV, 3 points for grade III, and 0 point for below grade III.

[4] = PTZ 70 mg/kg i.p. 1 min after administration
[5] = PTZ 70 mg/kg i.p. 3 min after administration
[6] = PTZ 70 mg/kg i.p. 5 min after administration
[7] = PTZ 70 mg/kg i.p. 10 min after administration
[8] = PTZ 70 mg/kg i.p. 15 min after administration
[9] = PTZ 70 mg/kg i.p. 30 min after administration
[10] = PTZ 70 mg/kg i.p. 60 min after administration
[11] = PTZ 70 mg/kg i.p. 90 min after administration
[12] = PTZ 70 mg/kg i.p. 120 min after administration

AUC0-4h in the brain tissues relative to that of the dipropofol ([1]; 45 mg/kg i.v.): about 1.31 times | Time at which concentration peaked in the brain tissues ([1]; 45 mg/kg i.v.): 15 min | Concentration in the brain tissues relative to that of the dipropofol ([1]; 45 mg/kg i.v., 5 min after administration): 2.75 times | concentration at 5 min ([1]; SD, rat, brain, iv, 45 mg/kg i.v., 5 min after administration, average, read-out: Drug concentration in brain tissues): 35200 ng/g | concentration at 15 min ([1]; SD, rat, brain, iv, 45 mg/kg i.v., 15 min after administration, average, read-out: Drug concentration in brain tissues): 42700 ng/g | concentration at 30 min ([1]; SD, rat, brain, iv, 45 mg/kg i.v., 30 min after administration, average, read-out: Drug concentration in brain tissues): 39800 ng/g | concentration at 1 h ([1]; SD, rat, brain, iv, 45 mg/kg i.v., 1 h after administration, average, read-out: Drug concentration in brain tissues): 32000 ng/g | concentration at 2 h ([1]; SD, rat, brain, iv, 45 mg/kg i.v., 2 h after administration, average, read-out: Drug concentration in brain tissues): 22700 ng/g | concentration at 4 h ([1]; SD, rat, brain, iv, 45 mg/kg i.v., 4 h after administration, average, read-out: Drug concentration in brain tissues): 7750 ng/g | IC50 ([2]; rats, test concentration 30, 10, 3, 1, 0.3 uM): 2930 nM
Compound: CCCc1cc(-c2cc(CCC)c(O)c(C(C)C)c2)cc(C(C)C)c1O [Compound 1, 4,4′-dihydroxy-3,3′-diisopropyl-5,5′-dipropylbiphenyl]
Brain entry rate and brain intake amount compared with dipropofol ([1]; same i.v. dose): significantly higher brain entry rate and brain intake amount than the dipropofol | Affinity for the GABAA receptors (in words) [2]: high affinity for the GABAA receptors, which affinity is comparable to that of the dipropofol | Number of episodes (animals), grade III [3, 4]: 2 | Number of episodes (animals), grade IV [3, 4]: 2 | Number of episodes (animals), grade V [3, 4]: 0 | Seizure Intensity (total score of 7 animals) [3, 4]: 14 | Number of episodes (animals), grade III [3, 5]: 0 | Number of episodes (animals), grade IV [3, 5]: 0 | Number of episodes (animals), grade V [3, 5]: 0 | Seizure Intensity (total score of 7 animals) [3, 5]: 0 | Number of episodes (animals), grade III [3, 6]: 0 | Number of episodes (animals), grade IV [3, 6]: 0 | Number of episodes (animals), grade V [3, 6]: 0 | Seizure Intensity (total score of 7 animals) [3, 6]: 0 | Number of episodes (animals), grade III [3, 7]: 0 | Number of episodes (animals), grade IV [3, 7]: 0 | Number of episodes (animals), grade V [3, 7]: 0 | Seizure Intensity (total score of 7 animals) [3, 7]: 0 | Number of episodes (animals), grade III [3, 8]: 0 | Number of episodes (animals), grade IV [3, 8]: 0 | Number of episodes (animals), grade V [3, 8]: 0 | Seizure Intensity (total score of 7 animals) [3, 8]: 0 | Number of episodes (animals), grade III [3, 9]: 0 | Number of episodes (animals), grade IV [3, 9]: 0 | Number of episodes (animals), grade V [3, 9]: 0 | Seizure Intensity (total score of 7 animals) [3, 9]: 0 | Number of episodes (animals), grade III [3, 10]: 0 | Number of episodes (animals), grade IV [3, 10]: 0 | Number of episodes (animals), grade V [3, 10]: 0 | Seizure Intensity (total score of 7 animals) [3, 10]: 0 | Number of episodes (animals), grade III [3, 11]: 0 | Number of episodes (animals), grade IV [3, 11]: 0 | Number of episodes (animals), grade V [3, 11]: 0 | Seizure Intensity (total score of 7 animals) [3, 11]: 0 | Number of episodes (animals), grade III [3, 12]: 0 | Number of episodes (animals), grade IV [3, 12]: 0 | Number of episodes (animals), grade V [3, 12]: 0 | Seizure Intensity (total score of 7 animals) [3, 12]: 0 | Time after administration for which the potency can be maintained ([3]; rats): ≥ 120 min
